{
  "source": "paper PMC4381587",
  "about": "“A novel PI3K inhibitor PIK-C98 displays potent preclinical activity against multiple myeloma” (Oncotarget, 2014)",
  "key": {"[1]": {"tested_on": "AKT phosphorylation in OPM2 cells", "test": "Immunoblotting of AKT phosphorylation in starved, IGF-1-stimulated OPM2 cells", "assay_type": "cell-based, human", "conditions": "OPM2 starved overnight, C98 25-100 μM, 0.5-2 hr, then IGF-1 100 ng/mL 15 min", "description": "To confirm this hypothesis, the inhibitory potency of C98 on PI3K enzymes was measured in a cell-free system with individual recombinant human PI3K isoforms. […] To further evaluate its specificity on PI3K, the effects of C98 on other associated kinases AKT, PDK1, and mTOR were also measured in the enzymatic systems. […] Therefore, C98 preferred to inhibit PI3K activity.\nFigure 1 C98 inhibits PI3K activity (A) Chemical structure of C98. (B) OPM2 cells were starved overnight and then treated with six compounds identified from the virtual screening for 2 hr, followed by IGF-1 stimulation for 15 min. Cell lysates were prepared for AKT expression and phosphorylation analyses. The known PI3K inhibitor S14161 was used as a positive control. (C) OPM2 cells were starved overnight, then treated with C98 at indicated concentration (25, 50 and 100 μM) or S14161 (100 μM) for 2 hr, followed by IGF-1 (100 ng/mL) stimulation for 15 min Cell lysates were prepared for AKT expression and phosphorylation analyses. […] Activity of each kinase was determined with HotSpot technology as described in the Methods section “Kinase activity in cell-free assay”. […]"}, "[2]": {"tested_on": "PI3K/AKT/mTOR pathway in OPM2 and JJN3 cells", "test": "Immunoblotting of PI3K/AKT/mTOR pathway in OPM2 and JJN3 cells", "assay_type": "cell-based, human", "conditions": "OPM2 and JJN3, increasing concentration, 24 hr", "description": "Subsequently, the inhibition of C98 on the PI3K signaling pathway was evaluated in MM cell lines OPM2 and JJN3. […] Because all these kinases are downstream signaling proteins in the PI3K pathway while C98 had no effects on AKT and mTOR in the cell free assay, the inhibition of C98 on these kinases was probably due to its suppression on PI3K.\n(§1) (B) LP1 and JJN3 cells were starved overnight, then treated with C98 or S14161 for 2 hr, followed by IGF-1 (100 ng/mL) for 15 min. Cells were then prepared for the analysis of the expression of p-AKT, t-AKT, p-IGF-1R, and IGF-1R by immunoblotting. (C) OPM2 and JJN3 cells were treated with increasing concentrations of C98 for 24 hr before being applied to immunoblotting against p-ERK, t-ERK, p-P38, t-P38, p-Src, t-Src, p-STAT3, or t-STAT3. GAPDH and β-actin were used as loading controls.\n(§2) The immunoblotting assays were performed as described previously. IRDye 680 goat anti-mouse and IRDye 800CW goat anti-rabbit antibodies were from Odyssey (San Ramon, CA, USA)."}, "[3]": {"tested_on": "IGF-1R", "test": "Immunoblotting of IGF-1R phosphorylation in starved, IGF-1-stimulated LP1 and JJN3 cells", "assay_type": "cell-based", "conditions": "100 μM, 2 hr, then IGF-1", "description": "as §1\n(§3) To find out whether C98 also interfered with other signaling pathways, we first checked the receptor tyrosine kinase IGF-1R, which mediates PI3K activation in MM cells in the presence of IGF-1. Starved MM cells LP1 and JJN3 were incubated with C98 followed by IGF-1 stimulation. […] Moreover, we also measured the expression of PTEN, a negative regulator of PI3K signaling, in MM cells after C98 treatment.\nas §2"}, "[4]": {"tested_on": "PTEN", "test": "Immunoblotting of PTEN protein level in MM cells", "assay_type": "cell-based", "conditions": "MM cells after C98 treatment", "description": "as §3, §2"}, "[5]": {"tested_on": "c-Src", "test": "Immunoblotting of c-Src phosphorylation in OPM2 and JJN3 cells", "assay_type": "cell-based, human", "conditions": "OPM2 and JJN3, 24 hr", "description": "as §1\nTo further clarify the effects of C98 on other signaling pathways associated with PI3K signaling, we evaluated ERK and p38, both of which mediate extracellular signaling similar to PI3K. […] We also checked the phosphorylation status of STAT3, a signal transducer and activator of transcription. […] Therefore, C98 had no effects on these kinases/proteins associated with PI3K signaling.\nas §2"}},
  "data": [
    {"smiles": "N#C/C(=C\\C=C\\c1ccc(-c2cc(Cl)ccc2Cl)o1)C(N)=S", "note": "[C98]", "values": [
      {"measurement": "AKT phosphorylation", "setting": "[1]", "result": "inhibited AKT phosphorylation in a time- and concentration-dependent manner"},
      {"measurement": "phosphorylation levels of AKT, mTOR, p70S6K, and 4E-BP1", "setting": "[2]", "result": "downregulated"},
      {"measurement": "IGF-1R activation (phosphorylation)", "setting": "[3]", "result": "had no effects on IGF-1R activation"},
      {"measurement": "PTEN protein level", "setting": "[4]", "result": "had no effects on the PTEN protein level"},
      {"measurement": "phosphorylation of c-Src", "setting": "[5]", "result": "failed to inhibit"}
    ]}
  ]
}
